Laboratory results: US7022716B2, “Cyclic amine phenyl beta-3 adrenergic receptor agonists” (Wyeth, priority 2000, dated 2006)

What was measured:
[1] = target: T1, human β3 adrenergic receptor (Homo sapiens, UniProt P13945); experiment: cAMP (SPA) response in CHO cells transfected with human β3 adrenergic receptor; format: cell-based; design: key: fraction of maximal isoproterenol (10^-5 M) response; details: maximal response relative to maximal response of isoproterenol at 10^-5 M
T1 construct: Full length β3 AR clones (402 amino acids) containing the last 6 amino acids of hβ3-AR are prepared; expressed in transfected cells; host or cells: CHO (Chinese hamster ovary) cells
In short: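 Reactions were stopped with 0.2N HCl and neutralised, and cAMP was measured by SPA. Activity is expressed as percent of the maximal 10^−5 M isoproterenol response.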

T1 sequence (P13945 whole entry): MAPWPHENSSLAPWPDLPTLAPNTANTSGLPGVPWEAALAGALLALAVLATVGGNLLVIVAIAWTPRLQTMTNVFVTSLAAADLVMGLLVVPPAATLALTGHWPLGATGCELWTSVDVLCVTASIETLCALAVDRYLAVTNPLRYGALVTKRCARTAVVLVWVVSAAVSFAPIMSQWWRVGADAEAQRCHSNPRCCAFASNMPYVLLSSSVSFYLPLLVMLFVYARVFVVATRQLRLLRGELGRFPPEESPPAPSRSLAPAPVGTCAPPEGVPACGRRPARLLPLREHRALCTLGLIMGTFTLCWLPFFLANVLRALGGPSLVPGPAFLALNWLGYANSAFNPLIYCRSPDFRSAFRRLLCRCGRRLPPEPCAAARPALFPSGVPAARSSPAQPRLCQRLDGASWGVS

| Compound | melting point | IA(β3) [1] |
| --- | --- | --- |
| O=C1NC(=O)C(=Cc2ccc(N3CCC(NC[C@H](O)COc4cccc5[nH]c(=O)[nH]c45)CC3)c(F)c2)S1 [Example 69, 5-(3-Fluoro-4-{4-[(2S)-2-hydroxy-3-(2-oxo-2,3-dihydro-1H-benzoimidazol-4-yloxy)-propylamino]-piperidin-1-yl}-benzylidene)-thiazolidine-2,4-dione] | 162 to 164 °C | 1 |
| CS(=O)(=O)Nc1cc([C@@H](O)CNC2CCN(c3ccc(CCC(=O)O)cc3)CC2)ccc1O [Example 184, 3-(4-{4-[(R)-2-Hydroxy-2-(4-hydroxy-3-methanesulfonylamino-phenyl)-ethylamino]-piperidin-1-yl}-phenyl)-propionic acid] | 130 to 133 °C | 1.1 |
| CCOC(=O)C(=Cc1ccc(N2CCC(NCC(O)c3ccc(O)c(NS(C)(=O)=O)c3)CC2)cc1)C(=O)OCC (stereo not shown) [Example 188, 2-(4-{4-[2-Hydroxy-2-(4-hydroxy-3-methanesulfonylamino-phenyl)-ethylamino]-piperidin-1-yl}-benzylidene)-malonic acid diethyl ester] | > 80 °C (dec.) | 0.91 |
| O=C1NC(=O)C(Cc2ccc(N3CCC(NC[C@H](O)c4cccc(Cl)c4)CC3)cc2)S1 (stereo partly drawn) [Example 79, 5-(4-{4-[2-(3-Chloro-phenyl)-(2R)-2-hydroxyethylamino}-piperidin-1-yl}-benzyl)-thiazolidine-2,4-dione] | > 195 °C | 0.56 |
| CS(=O)(=O)Nc1cc(C(O)CNC2CCN(c3ccc(-c4nnn[nH]4)cc3)CC2)ccc1O (stereo not shown) [Example 97, N-[2-Hydroxy-5-(1-hydroxy-2-{1-[4-(1H-tetrazol-5-yl)-phenyl]-piperidin-4-ylamino}-ethyl)-phenyl]-methanesulfonamide] | > 175 °C (dec.) | 0.9 |
| CS(=O)(=O)Nc1cc([C@@H](O)CNC2CCN(c3ccc(C(=O)NOCc4ccccc4)cc3)CC2)ccc1O [Example 191, N-Benzyloxy-4-{4-[(2R)-2-hydroxy-2-(4-hydroxy-3-methanesulfonylamino-phenyl)-ethylamino]-piperidin-1-yl}-benzamide] | > 70 °C (dec.) | 1 |
| CS(=O)(=O)Nc1cc(C(O)CNC2CCN(c3ccc(C=C4SC(=O)NC4=O)cc3Br)CC2)ccc1O (stereo not shown) [Example 70, N-[5-(2-{1-[2-Bromo-4-(2,4-dioxo-thiazolidin-5-ylidenemethyl)-phenyl]-piperidin-4-ylamino}-1-hydroxy-ethyl)-2-hydroxy-phenyl]-methanesulfonamide] | > 200 °C | 1.2 |
| N=C1NC(=O)C(Cc2ccc(N3CCC(NC[C@H](O)COc4cccc5[nH]c(=O)[nH]c45)CC3)cc2)S1 (stereo partly drawn) [Example 89, 4-((2S)-2-Hydroxy-3-{1-[4-(2-imino-4-oxo-thiazolidin-5-ylmethyl)-phenyl]-piperidin-4-ylamino}-propoxy)-1,3-dihydro-benzoimidazol-2-one] | > 155 °C (dec.) | 1.1 |
| CS(=O)(=O)Nc1cc(C(O)CNC2CCN(c3ccc(C=C4SC(=O)NC4=O)cc3F)CC2)ccc1O (stereo not shown) [Example 71, N-[5-(2-{1-[4-(2,4-Dioxo-thiazolidin-5-ylidenemethyl)-2-fluoro-phenyl]-piperidin-4-ylamino}-1-hydroxy-ethyl)-2-hydroxy-phenyl]-methanesulfonamide] | > 225 °C | 1.2 |
| O=C1NC(=O)C(=Cc2ccc(N3CCC(NC[C@H](O)COc4ccccc4)CC3)cc2)S1 [Example 83, 5-{4-[4-((2S)-2-Hydroxy-3-phenoxy-propylamino)-piperidin-1-yl]-benzylidene}-thiazolidine-2,4-dione] | 208 to 210 °C | 0.68 |
| CCOC(=O)CCc1ccc(N2CCC(NC[C@H](O)c3ccc(O)c(NS(C)(=O)=O)c3)CC2)cc1 [Example 187, 3-(4-{4-[(2R)-2-Hydroxy-2-(4-hydroxy-3-methanesulfonylamino-phenyl)-ethylamino]-piperidin-1-yl}-phenyl)-propionic acid ethyl ester] | 76 to 78 °C | 1.03 |
| CS(=O)(=O)Nc1cc([C@@H](O)CNC2CCN(c3ccc(CC(=O)O)cc3)CC2)ccc1O [Example 182, (4-{4-[(2R)-2-Hydroxy-2-(4-hydroxy-3-methanesulfonylamino-phenyl)-ethylamino]-piperidin-1-yl}-phenyl)-acetic acid] | > 140 °C (dec.) | 0.86 |

Further lines, results first:

| melting point | IA(β3) [1] | Compound |
| --- | --- | --- |
| 220 °C | 1.36 | CS(=O)(=O)Nc1cc([C@@H](O)CNC2CCN(c3ccc(/C=C/C(=O)O)cc3)CC2)ccc1O [Example 210, (2E)-3-(4-{4-[(2R)-2-Hydroxy-2-(4-hydroxy-3-methanesulfonylamino-phenyl)-ethylamino]-piperidin-1-yl}-phenyl)-acrylic acid] |
| 183 to 191 °C | 0.61 | COc1ccc(C(=O)Nc2ccc(N3CCC(NC[C@H](O)COc4cccc5[nH]c6ccccc6c45)CC3)cc2)cc1OC [Example 389, N-[4-(4-{[(2S)-3-(9H-Carbazol-4-yloxy)-2-hydroxypropyl]amino}-1-piperidinyl)phenyl]3,4-dimethoxybenzamide] |
| 104 to 113 °C | 1.3 | CS(=O)(=O)Nc1cc([C@@H](O)CNC2CCN(c3ccc(NC(=O)c4ccc5c(c4)OCO5)cc3)CC2)ccc1O [Example 394, N-(4-{4-[((2R)-2-Hydroxy-2-{4-hydroxy-3-[(methylsulfonyl)amino]phenyl}ethyl)amino]-1-piperidinyl}phenyl)-1,3-benzodioxole-5-carboxamide] |
| > 98 °C (dec.) | 1.2 | COC(=O)[C@H](Cc1ccccc1)NC(=O)c1ccc(N2CCC(NC[C@H](O)c3ccc(O)c(NS(C)(=O)=O)c3)CC2)cc1 [Example 204, (2S)-2-(4-{4-[(2R)-2-Hydroxy-2-(4-hydroxy-3-methanesulfonylamino-phenyl)-ethylamino]-piperidin-1-yl}-benzoylamino)-3-phenyl-propionic acid methyl ester] |
| > 95 °C (dec.) | 0.9 | CCOC(=O)CCNC(=O)c1ccc(N2CCC(NC[C@H](O)c3ccc(O)c(NS(C)(=O)=O)c3)CC2)cc1 [Example 193, Ethyl3-[(4-{4-[((2R)-2-hydroxy-2-{4-hydroxy-3-[(methylsulfonyl)amino]phenyl}-ethyl)amino]-1-piperidinyl}benzoyl)amino]propanoate.] |
| 160 to 169 °C | 0.82 | O=C(Nc1ccc(N2CCC(NC[C@H](O)COc3cccc4[nH]c(=O)[nH]c34)CC2)cc1)c1ccc2c(c1)OCO2 [Example 390, N-{4-[4-({(2S)-2-Hydroxy-3-[(2-oxo-2,3-dihydro-1H-benzimidazol-4-yl)oxy]propyl}-amino)-1-piperidinyl]phenyl}-1,3-benzodioxole-5-carboxamide] |
| > 230 °C (dec.) | 0.88 | CS(=O)(=O)Nc1cc([C@@H](O)CNC2CCN(c3ccc(C(=O)N[C@@H](CCC(=O)O)C(=O)O)cc3)CC2)ccc1O [Example 194, (2S)-2-[(4-{4-[((2R)-2-Hydroxy-2-{4-hydroxy-3-[(methylsulfonyl)amino]phenyl}-ethyl)amino]-1-piperidinyl}benzoyl)amino]pentanedioic acid] |
| 82 to 90 °C | 1 | CS(=O)(=O)Nc1cc([C@@H](O)CNC2CCN(c3ccc(NC(=O)CCC4CCCC4)cc3)CC2)ccc1O [Example 393, 3-Cyclopentyl-N-(4-{4-[((2R)-2-hydroxy-2-{4-hydroxy-3-[(methylsulfonyl)amino]phenyl}-ethyl)amino]-1-piperidinyl}phenyl)propanamide] |
| > 170 °C (dec.) | 0.98 | CS(=O)(=O)Nc1cc([C@@H](O)CNC2CCN(c3ccc(C(=O)NCCC(=O)O)cc3)CC2)ccc1O [Example 195, N-(4-{4-[((2R)-2-Hydroxy-2-{4-hydroxy-3-[(methylsulfonyl)amino]phenyl}ethyl)amino]-1-piperidinyl}benzoyl)-bete-alanine] |
| > 90 °C (dec.) | 1 | COC(=O)[C@H](CC(C)C)NC(=O)c1ccc(N2CCC(NCC(O)c3ccc(O)c(NS(C)(=O)=O)c3)CC2)cc1 (stereo partly drawn) [Example 209, (2S)-2-(4-{4-[2-Hydroxy-2-(4-hydroxy-3-methanesulfonylamino-phenyl)-ethylamino]-piperidin-1-yl}-benzoylamino)-4-methyl-pentanoic acid methyl ester] |
| 77 to 84 °C | 0.75 | COc1ccc(C(=O)Nc2ccc(N3CCC(NC[C@H](O)COc4ccc(O)cc4)CC3)cc2)cc1OC [Example 388, N-[4-(4-{[(2S)-2-Hydroxy-3-(4-hydroxyphenoxy)propyl]amino}-1-piperidinyl)phenyl]-3,4-dimethoxybenzamide] |
| > 80 °C (dec.) | 1.1 | COC(=O)[C@@H]1CCCN1C(=O)c1ccc(N2CCC(NC[C@H](O)c3ccc(O)c(NS(C)(=O)=O)c3)CC2)cc1 [Example 200, 1-(4-{4-[(2R)-2-Hydroxy-2-(4-hydroxy-3-methanesulfonylamino-phenyl)-ethylamino]-piperidin-1-yl}-benzoyl)-pyrrolidine-(2S)-2-carboxylic acid methyl ester] |
| 168 to 170 °C | 0.97 | CCCCN(Cc1nnn[nH]1)C(=O)c1ccc(N2CCC(NC[C@H](O)c3ccc(O)c(NS(C)(=O)=O)c3)CC2)cc1 [Example 213, N-Butyl-4-{4-[((2R)-2-hydroxy-2-{4-hydroxy-3-[(methylsulfonyl)amino]phenyl}-ethyl)amino]-1-piperidinyl}-N-(1H-tetraazol-5-ylmethyl)benzamide] |
| > 110 °C (dec.) | 0.94 | COC(=O)C1(NC(=O)c2ccc(N3CCC(NC[C@H](O)c4ccc(O)c(NS(C)(=O)=O)c4)CC3)cc2)CC1 [Example 206] |
